{
  "source": "patent US20170265465A1",
  "about": "“BIORATIONAL TREATMENT PRODUCTS AND METHODS OF USING SAME” (Board of Trustees of Michigan State University, priority 2014, published 2017)",
  "key": {"irrigated putting green [1]": {"system": "irrigated putting green", "assay": "Example 15: visual turfgrass growth rating", "assay_type": "in vivo", "details": "scale 1-5 (1 = least, 5 = most)", "procedure": "(§1) The study was established in four replications of a randomized block design utilizing 2 ft.×21 ft. plots with 6 inch alleys. Treatments were initially applied on Sep. 13, 2016 with the same sprayer and under the same conditions described in Example 1. Turfgrass quality ratings and biomass ratings were performed as described in Example 1. The plots were trimmed on September 19, October 8, and Oct. 24, 2016 and clippings were also collected as described in Example 1.\n(§2) Treatments were re-applied on Sep. 28, 2016 and Oct. 11, 2016. Turfgrass visual growth and quality ratings were taken periodically, along with turfgrass color ratings as taken with a Spectrum Technologies, Inc. TCM 500 NDVI Color Meter and a Spectrum Technologies, Inc. FieldScout CM 1000 Chlorophyll Meter. The study was irrigated as needed to prevent wilt. No background fertility was applied to the study area. The area was sprayed with 26GT fungicide on Sep. 27, 2016 to control dollar spot disease."}, "irrigated putting green [2]": {"system": "irrigated putting green", "assay": "Example 15: turfgrass color (chlorophyll) rating, FieldScout CM 1000 Chlorophyll Meter", "assay_type": "in vivo", "procedure": "as §1, §2\nThe turfgrass color (chlorophyll) rating of Oct."}, "[3]": {"details": "Trt. 4, 0.1 lb N/1000 sq. ft. /14 days, Oct. 6"}, "[4]": {"details": "Trt. 5, 0.05 lb N/1000 sq. ft. /14 days, Oct. 6"}},
  "data": [
    {"smiles": "NC(N)=O", "note": "[Urea (46-0-0), urea]", "values": [
      {"measurement": "Visual Turfgrass Growth, MEAN", "setting": "irrigated putting green [1]; [3]", "value": 2.5},
      {"measurement": "Visual Turfgrass Growth, MEAN", "setting": "irrigated putting green [1]; Trt. 4, 0.1 lb N/1000 sq. ft. /14 days, Sept. 19", "value": 2.5},
      {"measurement": "Visual Turfgrass Growth, MEAN", "setting": "irrigated putting green [1]; Trt. 4, 0.1 lb N/1000 sq. ft. /14 days, Sept. 25", "value": 3.8},
      {"measurement": "Visual Turfgrass Growth, MEAN", "setting": "irrigated putting green [1]; [4]", "value": 2.3},
      {"measurement": "Visual Turfgrass Growth, MEAN", "setting": "irrigated putting green [1]; Trt. 5, 0.05 lb N/1000 sq. ft. /14 days, Sept. 19", "value": 2.8},
      {"measurement": "Visual Turfgrass Growth, MEAN", "setting": "irrigated putting green [1]; Trt. 5, 0.05 lb N/1000 sq. ft. /14 days, Sept. 25", "value": 3.3},
      {"measurement": "Turfgrass Color (Greenness), MEAN, chlorophyll meter reading", "setting": "irrigated putting green [2]; [3]", "value": 352.5},
      {"measurement": "Turfgrass Color (Greenness), MEAN, chlorophyll meter reading", "setting": "irrigated putting green [2]; Trt. 4, 0.1 lb N/1000 sq. ft. /14 days, Oct. 25", "value": 272.3},
      {"measurement": "Turfgrass Color (Greenness), MEAN, chlorophyll meter reading", "setting": "irrigated putting green [2]; [4]", "value": 352.3},
      {"measurement": "Turfgrass Color (Greenness), MEAN, chlorophyll meter reading", "setting": "irrigated putting green [2]; Trt. 5, 0.05 lb N/1000 sq. ft. /14 days, Oct. 25", "value": 261}
    ]}
  ]
}
